Experiment [1] deals with swine whipworm (Trichuris suis). The experiment can be described thus: Test of anthelmintic effect in naturally infected pigs, E.P.G. on 7th day: swine whipworm (Test Examples A9, B9, C9, D9). Type of experiment: in vivo. The protocol: (§1) Six pigs infected with swine roundworm and swine whipworm (naturally infected pigs) were employed in groups each of two pigs.
(§2) As a control, only gelatin capsules were administered orally to the two pigs.
(§3) Before administration and on the 7th day after. administration, fecal matter testing was conducted to calculate the E.P.G., and the anthelmintic effect was judged by the changing of the E.P.G. to negative'.
(§4) 50 mg of each compound was placed in a gelatin capsule per 1 Kg of body weight and administered orally to each of the two pigs. As control, only gelatin capsules were administered orally to two pigs.
(§5) 30 mg of each compound was placed in a gelatin capsule per 1 Kg of body weight and administered orally to each of the two pigs. As control, only gelatin capsules were administered orally to two pigs.

Experiment [2] concerns swine roundworm (Ascaris suum). The experiment can be described thus: Test of anthelmintic effect in naturally infected pigs, E.P.G. on 7th day: swine roundworm (Test Examples A9, B9, C9, D9). The experiment is classed as in vivo. Particulars: for anthelmintic effect: pigs infected with swine roundworm and swine whipworm (statement covers both). The procedure: as §1, §2, §3, §4, §5

The subject of experiment [3] is Liver fluke; Fasciola hepatica (F. hepatica). The experiment can be described thus: Test of anthelmintic effect against rat infected experimentally with liver fluke (Test Examples A11, B11, C11, D11). Type of experiment: in vivo. On the set-up: key to Presence or absence of fluke egg in fecal matter On 21st day after the last administration: +: indicates detection of fluke egg; -: indicates no detection.

Experiment [4] relates to fowl roundworm (As. galli). The experiment can be described thus: Anthelmintic test in chickens artificially infected with fowl roundworm, compound added to feed, E.P.G. and worm count up to 21st day (Test Examples A2, B2, C2, D2). The experiment is classed as in vivo, Ascaridia galli. Particulars: Ascaridia galli, 504 h, read-out: Anthelmintic effect.
The subject of experiment [5] is fowl roundworm (Ascaridia galli). The experiment can be described thus: Anthelmintic test in chickens artificially infected with fowl roundworm, single oral dose in gelatin capsule, worm bodies counted within 48 hours (Test Examples A1, B1, C1, D1). Type of experiment: in vivo. The following applies: Ascaridia galli, po, 48 h, read-out: Anthelmintic effect after 48 hours. In outline:
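Groups of three chickens with confirmed Ascaridia galli infection given a single oral dose in gelatin capsule (10 and 20 mg/kg in A1 and B1; 30 and 50 mg/kg in C1; 15 and 30 mg/kg in D1). Worms expelled over 48 h and those remaining in the gut at necropsy counted to give anthelmintic percentage.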

Experiment [6] concerns Diphyllobothrium erinacei. The experiment can be described thus: Test of anthelmintic effect against Diphyllobothrium erinacei (tapeworm) in experimentally infected cats (Test Examples A5, B5, C5, D5).
The mark [7] stands for this setting: po, chickens, 50 ppm added to feed, worm count on 21st day, one value per chicken.

Several values for one entry are separate records, joined by “and”; a condition that tells them apart may be missing. Equal entries are not always repeated. Where two headings read alike, the source gives them in different places.

Regarding `C#CCN(OCCCC)C(=O)c1ccccc1` [Compound A10, N-propargyl-N-benzoyl-O-butylhydroxylamine], the “Change of E.P.G. 7th day” value was found to be 0 E.P.G in experiment [1] (pigs, 20 mg/Kg orally once, one value per pig) and 0 E.P.G in experiment [2] (pigs, 20 mg/Kg orally once, Ascaris suum, one value per pig). Further, in experiment [2] (one administration of 20 mg/Kg), the “anthelmintic effect” value is recorded as “marked anthelmintic effect”. Also, the “Condition of fluke body” value in experiment [3] (rats, 50 mg/Kg x 5 orally, autopsy, liver, "Denatured" = fluke body is alive but a part of fluke body has changed, one value per rat) was “dead”. In addition, the “Presence or absence of fluke egg in fecal matter On 21st day after the last administration” value in experiment [3] (rats, 50 mg/Kg x 5 orally, one value per rat) was “-”. Moreover, the inhibition in vivo at 10 ppm in experiment [4] (po, chickens, 10 ppm added to feed, worm count on 21st day, one value per chicken) is 80 to 90%. Further, the inhibition in vivo at 50 ppm in experiment [4] (setting [7]) amounted to 100%.
Regarding `C=CCN(OCCCC)C(=O)c1ccccc1` [Compound B19, N-allyl-N-benzoyl-0-butylhydroxylamine], the “Change of E.P.G. 7th day” value was found to be 0 E.P.G in experiment [1] (pigs, 50 mg/Kg orally once, one value per pig) and 0 E.P.G in experiment [2] (pigs, 50 mg/Kg orally once, Ascaris suum, one value per pig). Also, the “anthelmintic effect” value was “marked anthelmintic effect” in experiment [2] (one administration of 50 mg/Kg); “marked antihelmintic effect” in experiment [3] (rats, five administrations in a dose of 50 mg/Kg each); “marked anthelmintic effects” in experiment [6] (cats, 5 continuous administrations of 50 mg/Kg). Moreover, the inhibition in vivo at 30 mg/kg in experiment [5] (chickens, 30 mg/Kg orally in gelatin capsule, one value per chicken (No.1-3)) is 100%. Further, in experiment [5] (chickens, 50 mg/Kg orally in gelatin capsule, one value per chicken (No.1-3)), the inhibition in vivo at 50 mg/kg stood at 100%. Further, the “Condition of fluke body” value in experiment [3] (rat, 50 mg/Kg x 5) is “dead”. In addition, the “Presence or absence of fluke egg in fecal matter On 21st day after the last administration” value in experiment [3] (rat, 50 mg/Kg x 5) is “-”. The “Number of worm bodies remaining in enteron” value in experiment [6] (cats infected with 5 plerocercoids, 50 mg/Kg x 5 times orally, autopsy ten days after administration, one value per cat) worked out at 0. For the same compound, in experiment [6] (cats, 50 mg/Kg x 5 orally, one value per cat (Table B7)), the “Worm egg detection on 10th day after administration” value is listed as “-”. Also, in experiment [4] (po, chickens, 20 ppm added to feed, worm count on 21st day, one value per chicken), the inhibition in vivo at 20 ppm is 80 to 90%. In addition, the inhibition in vivo at 50 ppm in experiment [4] (setting [7]) is 100%.
In the case of `C=CCON(CC=C)C(=O)CCC` [Compound C3], the “Change of E.P.G. 7th day” value in experiment [1] (pig, 30 mg/Kg oral in gelatin capsule, one administration) amounted to 0; in experiment [2] (pig, Ascaris suum, 30 mg/Kg oral in gelatin capsule, one administration), 0. The “Change of E.P.G. Before administration” value in experiment [2] (pig, Ascaris suum, before 30 mg/Kg oral (baseline)) was 1,300 and 2,100. In experiment [2] (one administration of 30 mg/Kg), the “anthelmintic effect” value is “marked anthelmintic effect”. Besides, the inhibition in vivo at 30 mg/kg in experiment [5] (chicken, 30 mg/Kg oral in gelatin capsule, chickens No.1-3) is 80 to 90%. For the same compound, the inhibition in vivo at 50 mg/kg in experiment [5] (chicken, 50 mg/Kg oral in gelatin capsule, chickens No.1-3) was determined as 100%. Also, the inhibition in vivo at 25 ppm in experiment [4] (feed or water, chicken, 25 ppm in feed) was 80 to 90%. Also, the inhibition in vivo at 50 ppm in experiment [4] (feed or water, chicken, 50 ppm in feed) was 100%.

Source of the values: patent EP0103895A2, “Novel hydroxylamine derivatives, production and use thereof” (MEIJI SEIKA KABUSHIKI KAISHA, priority 1982, dated 1984).
